Experiments:
[1] = RP TLC on unimpregnated RP-2 control plate; assay type: physicochemical; conditions: Rf value from unimpregnated RP plate (control); mobile phase pH 7.4
[2] = target: T1, human serum albumin HSA (Homo sapiens, UniProt P02768); assay: HPLC on immobilized human serum albumin column (HPLC-HSA); assay type: in vitro ADME; conditions: for log kHSA: logarithm of retention factor, mobile phase pH 7.4; for kHSA: retention factor, acetate buffer pH 7.4/acetonitrile/methanol 85:10:5
T1 construct: 4 × 10 mm

[3] = target: T2, bovine serum albumin BSA (Bos taurus, UniProt P02769); assay: RP TLC on silanized RP-2 plates impregnated with bovine serum albumin; assay type: in vitro ADME; conditions: for RP: Rf value from RP plate impregnated with 2 mg/mL BSA solution, mobile phase pH 7.4; for RP/C: Rf from BSA-modified RP-2 plate / Rf from clear one (control)
T2 construct: purchased Sigma Aldrich

[4] = NP TLC on unimpregnated control plate; assay type: physicochemical; conditions: Rf value from unimpregnated NP plate (control); mobile phase pH 7.4
[5] = design: method as in earlier work; conditions: code describing the acid-base properties; source Chembl; cited from earlier work
[6] = target: T2, bovine serum albumin BSA; assay: NP TLC on silica gel plates impregnated with bovine serum albumin; assay type: in vitro ADME; conditions: for NP/C: Rf from BSA-modified NP plate / Rf from clear one (control)
[7] = HPLC on immobilized artificial membrane column (HPLC-IAM); assay type: physicochemical; conditions: for log kIAM: logarithm of retention factor, mobile phase pH 7.4; for kIAM: retention factor, phosphate buffer pH 7.4/acetonitrile 80:20
[8] = ratio of drug concentration in milk and plasma; cited from earlier work
[9] = Rf value from NP plate impregnated with 2 mg/mL BSA solution, mobile phase pH 7.4
Wherever a/b/n code is given: key: (-1) - acids; (0) - neutrals; (1) - bases.

T2 sequence (P02769 25-607): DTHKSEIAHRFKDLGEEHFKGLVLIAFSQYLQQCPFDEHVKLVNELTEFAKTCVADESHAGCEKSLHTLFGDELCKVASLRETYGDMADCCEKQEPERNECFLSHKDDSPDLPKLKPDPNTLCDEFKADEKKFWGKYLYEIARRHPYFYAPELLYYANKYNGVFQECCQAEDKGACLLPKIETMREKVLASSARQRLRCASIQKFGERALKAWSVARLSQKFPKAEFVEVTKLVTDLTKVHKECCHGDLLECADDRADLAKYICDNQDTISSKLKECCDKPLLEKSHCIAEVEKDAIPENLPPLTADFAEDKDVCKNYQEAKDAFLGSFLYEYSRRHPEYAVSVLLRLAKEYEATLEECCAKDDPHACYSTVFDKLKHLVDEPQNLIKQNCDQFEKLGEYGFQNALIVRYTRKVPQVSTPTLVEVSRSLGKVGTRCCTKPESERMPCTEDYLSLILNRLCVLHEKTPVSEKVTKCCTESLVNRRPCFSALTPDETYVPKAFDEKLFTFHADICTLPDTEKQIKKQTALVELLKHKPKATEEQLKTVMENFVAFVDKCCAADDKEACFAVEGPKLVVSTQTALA
T1 sequence (P02768 25-609): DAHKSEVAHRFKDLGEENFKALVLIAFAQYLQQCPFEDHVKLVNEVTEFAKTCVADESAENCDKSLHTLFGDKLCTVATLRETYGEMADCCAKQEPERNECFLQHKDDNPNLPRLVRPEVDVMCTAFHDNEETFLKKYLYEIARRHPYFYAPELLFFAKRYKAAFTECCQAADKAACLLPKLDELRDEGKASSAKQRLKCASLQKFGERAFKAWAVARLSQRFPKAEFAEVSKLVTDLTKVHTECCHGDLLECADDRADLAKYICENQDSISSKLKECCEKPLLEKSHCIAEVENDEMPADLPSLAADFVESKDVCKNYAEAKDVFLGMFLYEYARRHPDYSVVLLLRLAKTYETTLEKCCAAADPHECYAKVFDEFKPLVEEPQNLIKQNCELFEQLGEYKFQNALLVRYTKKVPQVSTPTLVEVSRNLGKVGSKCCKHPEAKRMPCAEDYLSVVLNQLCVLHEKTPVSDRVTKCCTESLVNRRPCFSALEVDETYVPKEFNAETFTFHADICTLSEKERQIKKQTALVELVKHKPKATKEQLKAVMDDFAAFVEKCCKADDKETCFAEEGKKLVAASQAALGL

For `CC(=O)Nc1nnc(S(N)(=O)=O)s1` [acetazolamid], the CRP [1] was 0.97, the “log kHSA” value [2] was -0.13 and the kHSA [2] was 0.74. The RP [3] was 0.96.

For `CN(C)CCC=C1c2ccccc2CCc2ccccc21` [amitriptyline], the CNP [4] is listed as 0.32, the a/b/n code [5] is listed as 1 and the CRP [1] is listed as 0.67. The “log kHSA” value [2] was 0.77, the kHSA [2] was 5.87 and the NP/C [6] was 0.97. It also gave an NP [6, 9] of 0.31, an RP/C [3] of 0.94 and an RP [3] of 0.63.

In the case of `CCCCN1CCCCC1C(=O)Nc1c(C)cccc1C` (stereo not shown) [bupivacaine], the CNP [4] is listed as 0.67, the a/b/n code [5] is listed as 0 and the CRP [1] is listed as 0.74. The “log kHSA” value [2] was 0.07, the kHSA [2] was 1.18 and the NP/C [6] was 1.00. It also gave an NP [6, 9] of 0.67, an RP/C [3] of 1.01 and an RP [3] of 0.75.

With `CCN(CC)CCCC(C)Nc1ccnc2cc(Cl)ccc12` (stereo not shown) [chloroquine] the “log kIAM” value [7] was 0.49.

For `CN(C)CCCC1(c2ccc(F)cc2)OCc2cc(C#N)ccc21` (stereo not shown) [citalopram], the “log kIAM” value [7] was 0.50 and the kIAM [7] was 3.14.

Work on `CN(C)CCCN1c2ccccc2CCc2ccc(Cl)cc21` [clomipramine] yielded a kIAM [7] of 3.05.

For `CN(C)CCC=C1c2ccccc2COc2ccccc21` [doxepin], the CNP [4] is given as 0.30, the a/b/n code [5] is given as 1 and the “log kIAM” value [7] is given as 0.45. The kIAM [7] was 2.81, the “log kHSA” value [2] was 0.63 and the kHSA [2] was 4.25. The NP/C [6] was 1.03, the NP [6, 9] was 0.31 and the RP/C [3] was 0.93. It also gave an RP [3] of 0.54.

For `CNCC[C@H](Oc1cccc2ccccc12)c1cccs1` [duloxetine], the “log kIAM” value [7] was 0.45, the kIAM [7] was 2.84 and the “log kHSA” value [2] was 0.91. It also gave a kHSA [2] of 8.16.

For `CN1CCC[C@@H]1Cc1c[nH]c2ccc(CCS(=O)(=O)c3ccccc3)cc12` [eletriptan], the a/b/n code [5] is listed as 1, the “log kIAM” value [7] is listed as 0.55 and the kIAM [7] is listed as 3.57. The “log kHSA” value [2] was 0.58 and the kHSA [2] was 3.78.

In the case of `CC[C@@H](CO)NCCN[C@@H](CC)CO` [ethambutol], the CNP [4] is listed as 0.19, the a/b/n code [5] is listed as 1 and the CRP [1] is listed as 0.97. The “log kIAM” value [7] was 0.34, the kIAM [7] was 2.18 and the “log kHSA” value [2] was 0.24. For the same compound, the kHSA [2] was 1.73, the NP/C [6] was 1.11 and the NP [6, 9] was 0.21. The RP/C [3] was 0.98 and the RP [3] was 0.95.

In the case of `COCCCC/C(=N\OCCN)c1ccc(C(F)(F)F)cc1` [fluvoxamine], the CNP [4] was 0.34.

In the case of `NCC1(CC(=O)O)CCCCC1` [gabapentin], the “log kIAM” value [7] was 0.23, the kIAM [7] was 1.70 and the “log kHSA” value [2] was -0.84. It also gave a kHSA [2] of 0.15.

With `NS(=O)(=O)c1cc2c(cc1Cl)NCNS2(=O)=O` [hydrochlorotiazide] the “log kIAM” value [7] was 0.30 and the kIAM [7] was 2.01.

For `CCC(C)n1ncn(-c2ccc(N3CCN(c4ccc(OCC5COC(Cn6cncn6)(c6ccc(Cl)cc6Cl)O5)cc4)CC3)cc2)c1=O` (stereo not shown) [itraconazole], the CNP [4] is listed as 0.96, the a/b/n code [5] is listed as 0 and the CRP [1] is listed as 0.86. The “log kIAM” value [7] was 0.79, the kIAM [7] was 6.15 and the “log kHSA” value [2] was 0.98. It also gave a kHSA [2] of 9.65, an NP/C [6] of 1.01 and an NP [6, 9] of 0.97. For the same compound, the RP/C [3] was 0.98 and the RP [3] was 0.84.

In the case of `O=C(c1ccccc1)c1ccc2n1CCC2C(=O)O` (stereo not shown) [ketorolac], the CNP [4] is given as 0.92, the a/b/n code [5] is given as -1 and the CRP [1] is given as 0.96. The “log kIAM” value [7] was 0.38, the kIAM [7] was 2.39 and the “log kHSA” value [2] was 0.98. It also gave a kHSA [2] of 9.65, an NP/C [6] of 0.99 and an NP [6, 9] of 0.91. For the same compound, the RP/C [3] was 1.00 and the RP [3] was 0.96.

In the case of `CC[C@@H](C(N)=O)N1CCCC1=O` [levetiracetam], the CNP [4] is given as 0.92, the a/b/n code [5] is given as 0 and the CRP [1] is given as 0.92. The “log kIAM” value [7] was 0.21, the kIAM [7] was 1.62 and the “log kHSA” value [2] was -1.16. It also gave a kHSA [2] of 0.07, an NP/C [6] of 1.00 and an NP [6, 9] of 0.92. The RP/C [3] was 1.00 and the RP [3] was 0.92.

For `CCC[C@@H]1C[C@@H](C(=O)N[C@@H]([C@H]2O[C@H](SC)[C@H](O)[C@@H](O)[C@H]2O)[C@@H](C)O)N(C)C1` [lincomycin], the CNP [4] is given as 0.91, the a/b/n code [5] is given as 1 and the “log kIAM” value [7] is given as 0.59. The kIAM [7] was 3.89, the “log kHSA” value [2] was -0.08 and the kHSA [2] was 0.82. The NP/C [6] was 1.00 and the NP [6, 9] was 0.91.

In the case of `Nc1ccc(O)c(C(=O)O)c1` [mesalazine], the a/b/n code [5] is given as -1, the CRP [1] is given as 0.99 and the “log kIAM” value [7] is given as 0.11. For the same compound, the kIAM [7] was 1.28, the “log kHSA” value [2] was -0.73 and the kHSA [2] was 0.18. It also gave an RP/C [3] of 0.98 and an RP [3] of 0.97.

With `Nc1cc(N2CCCCC2)nc(N)[n+]1[O-]` [minoxidil] the “log kIAM” value [7] was 0.29 and the kIAM [7] was 1.96.

In the case of `CCOC(=O)C1=C(C)NC(C)=C(C(=O)OC)C1c1cccc([N+](=O)[O-])c1` (stereo not shown) [nitrendipine], the CNP [4] is given as 0.97, the a/b/n code [5] is given as 0 and the CRP [1] is given as 0.86. The “log kIAM” value [7] was 0.47, the kIAM [7] was 2.98 and the “log kHSA” value [2] was 0.55. The kHSA [2] was 3.55, the NP/C [6] was 1.00 and the NP [6, 9] was 0.97. The RP/C [3] was 1.00 and the RP [3] was 0.86.

With `CC1COc2c(N3CCN(C)CC3)c(F)cc3c(=O)c(C(=O)O)cn1c23` (stereo not shown) [ofloxacin] the CNP [4] was 0.24, the “log kIAM” value [7] was 0.49 and the kIAM [7] was 3.07. The NP ([6]; pH 7.4) was 0.23.

With `NC(=O)N1c2ccccc2CC(=O)c2ccccc21` [oxcarbamazepine] the CNP [4] was 0.91, the CRP [1] was 0.91 and the “log kIAM” value [7] was 0.35. For the same compound, the kIAM [7] was 2.26, the “log kHSA” value [2] was -0.40 and the kHSA [2] was 0.40. The NP [6, 9] was 0.90 and the RP [3] was 0.91.

In the case of `CC(C)C[C@H](CN)CC(=O)O` [pregabalin], the “log kIAM” value [7] was 0.22, the kIAM [7] was 1.65 and the “log kHSA” value [2] was -0.87. It also gave a kHSA [2] of 0.14.

For `CCC1(c2ccccc2)C(=O)NCNC1=O` [primidone], the CNP [4] is listed as 0.90, the a/b/n code [5] is listed as 0 and the CRP [1] is listed as 0.93. The “log kIAM” value [7] was 0.31, the kIAM [7] was 2.02 and the “log kHSA” value [2] was -0.66. The kHSA [2] was 0.22, the NP/C [6] was 1.03 and the NP [6, 9] was 0.93. For the same compound, the RP/C [3] was 1.04 and the RP [3] was 0.97.

With `CCCc1cc(=O)[nH]c(=S)[nH]1` [propylthiouracil] the “log kIAM” value [7] was 0.18 and the kIAM [7] was 1.51.

In the case of `C=C[C@H]1C[N@@]2CC[C@H]1C[C@H]2[C@H](O)c1ccnc2ccc(OC)cc12` [quinine], the “log kIAM” value [7] was 0.49 and the kIAM [7] was 3.06.

With `CO[C@H]1/C=C/O[C@@]2(C)Oc3c(C)c(O)c4c(O)c(c(/C=N/N5CCN(C)CC5)c(O)c4c3C2=O)NC(=O)/C(C)=C\C=C\[C@H](C)[C@H](O)[C@@H](C)[C@@H](O)[C@@H](C)[C@H](OC(C)=O)[C@@H]1C` [rifampicin] the CNP [4] was 0.73, the CRP [1] was 0.95 and the “log kIAM” value [7] was 0.92. For the same compound, the kIAM [7] was 8.37, the “log kHSA” value [2] was -1.53 and the kHSA [2] was 0.03. For the same compound, the NP [6, 9] was 0.77 and the RP [3] was 0.94.

In the case of `CC(N)C12CC3CC(CC(C3)C1)C2` (stereo not shown) [rimantadine], the CNP [4] is listed as 0.92, the a/b/n code [5] is listed as 1 and the CRP [1] is listed as 0.95. The “log kIAM” value [7] was 0.28, the kIAM [7] was 1.91 and the “log kHSA” value [2] was -0.80. For the same compound, the kHSA [2] was 0.16, the NP/C [6] was 1.00 and the NP [6, 9] was 0.92. The RP/C [3] was 1.00 and the RP [3] was 0.95.

In the case of `CN[C@H]1CC[C@@H](c2ccc(Cl)c(Cl)c2)c2ccccc21` [sertraline], the M/P ratio [8] is given as “above 1”.

Work on `CC(C)(C)NC[C@H](O)COc1nsnc1N1CCOCC1` [timolol] yielded a CNP [4] of 0.34, a CRP [1] of 0.97 and a kIAM [7] of 2.88. The kHSA [2] was 0.13, the NP [6, 9] was 0.32 and the RP [3] was 0.97.

For `CCS(=O)(=O)CCn1c([N+](=O)[O-])cnc1C` [tinidazole], the CNP [4] was 0.89, the “log kIAM” value [7] was 0.30 and the kIAM [7] was 2.00. For the same compound, the “log kHSA” value [2] was -0.92, the kHSA [2] was 0.12 and the NP [6, 9] was 0.88.

For `COc1cc(Cc2cnc(N)nc2N)cc(OC)c1OC` [trimethoprim], the CNP [4] was 0.57 and the NP [6, 9] was 0.59.

In the case of `CC(=O)CC(c1ccccc1)c1c(O)c2ccccc2oc1=O` (stereo not shown) [warfarin], the “log kIAM” value [7] was 0.44 and the kIAM [7] was 2.76.

In the case of gentamycin, the CNP [4] is given as 0.96, the a/b/n code [5] is given as 1 and the “log kIAM” value [7] is given as 0.63. The kIAM [7] was 4.25.
